Laboratory results taken from US20120095024A1, “TOLUIDINE SULFONAMIDES AND THEIR USE” (Elara Pharmaceuticals GmbH, priority 2008, published 2012).

Tested on: MCF7 cells
Experiment: Cell proliferation assay (ATPlite), MCF-7
Format: cell-based, human
Conditions: Homo sapiens, inhibition of cell proliferation, 72 h
Experimental: MCF-7 human breast adenocarcinoma cells and HL-60 acute promyelocytic leukaemia cells were obtained from ATCC (LGC Promochem). HG-1 multiple myeloma cells were obtained from Dr. D. Hose (DKFZ Heidelberg). The CellSensor® HRE-bla HCT116 cell line (colorectal carcinoma) was obtained from Invitrogen.
Cells were grown under humidified 95% air, 5% CO2 at 37° C. in Dulbecco's modified Eagle's medium (DMEM: MCF-7) or RPMI 1640 medium (RPMI: HL-60, HG-1) supplemented with 10% fetal bovine serum (FBS), 100 U/ml penicillin and 100 μg/ml streptomycin, 2 mM L-glutamine, and 2 ng/ml IL-6 (for the HG-1 cell line only). The HCT116 cell line was grown under the same atmospheric conditions in McCoy's 5A medium supplemented with 10% FBS and penicillin/streptomycin as above, in addition to blasticidin as a selection marker at a final concentration of 5 μg/ml.
Cell proliferation experiments were carried out in 96-well tissue culture plates with seeding of 2000 cells/well (MCF-7) or 1000 cells/well (HL-60, HG-1) in 100 μl of the relevant medium. Cells were subsequently incubated under the conditions mentioned for 24 h prior to addition of compounds.
For the determination of compound EC50 values, 10 μl compounds at 11× concentrations in 5.5% DMSO were added to the wells at various concentrations yielding a final constant percentage of 0.5% DMSO at the desired 1× compound concentration. As a positive control, cells were treated with 5.5% DMSO. The cells were then incubated for a further 72 h prior to the measurement.
To determine the degree of inhibition of cell proliferation, cells were treated with ATPlite solution according to the manufacturer's instructions (PerkinElmer, ATPlite 1-step Luminescence ATP Detection Assay System) and luciferase readout measured on an Envision HTS multilabel plate reader (PerkinElmer) in luminescence mode according to established protocols. Raw data were imported into an ActivityBase database (IDBS, ID Business Solutions) and EC50 values calculated using the IDBS program ActivityBase XE. Table 2A and 2B show the IC50 values obtained in the above-outlined cell proliferation assay for exemplary compounds of the invention.

| SMILES | EC50 [nM] |
| --- | --- |
| Cc1ccc(S(=O)(=O)Nc2cc(-c3nnn[nH]3)ccc2C)cc1 [Example 1, 4-Methyl-N-[2-methyl-5-(1H-tetrazol-5-yl)-phenyl]-benzenesulfonamide] | 1000 to 10000 |
| Cc1ccc(S(=O)(=O)Nc2cc(-n3cnnn3)ccc2C)cc1 [Example 2, 4-Methyl-N-(2-methyl-5-tetrazol-1-yl-phenyl)-benzenesulfonamide] | 1000 to 10000 |
| Cc1ccc(S(=O)(=O)Nc2cc(-c3nnn(C)n3)ccc2C)cc1 [Example 6, 4-Methyl-N-[2-methyl-5-(2-methyl-2H-tetrazol-5-yl)-phenyl]-benzenesulfonamide] | 1000 to 10000 |
| COc1ccc(S(=O)(=O)Nc2cc(-c3cc(C)sc3C)ccc2C)cc1 [Example 13, N-[5-(2,5-Dimethyl-thiophen-3-yl)-2-methyl-phenyl]-4-methoxy-benzenesulfonamide] | 1000 to 10000 |
| COc1ccc(S(=O)(=O)Nc2cc(-c3ccsc3)ccc2C)cc1 [Example 14, 4-Methoxy-N-(2-methyl-5-thiophen-3-yl-phenyl)-benzenesulfonamide] | < 500 |
| COc1ccc(S(=O)(=O)Nc2cc(-c3ccsc3C)ccc2C)cc1 [Example 17, 4-Methoxy-N-[2-methyl-5-(2-methyl-thiophen-3-yl)-phenyl]-benzenesulfonamide] | < 500 |
| COc1ccc(S(=O)(=O)Nc2cc(-c3cnco3)ccc2C)cc1 [Example 20, 4-Methoxy-N-(2-methyl-5-oxazol-5-yl-phenyl)-benzenesulfonamide] | < 500 |
| COc1ccc(S(=O)(=O)Nc2cc(-n3cccc3)ccc2C)cc1 [Example 21, 4-Methoxy-N-(2-methyl-5-pyrrol-1-yl-phenyl)-benzenesulfonamide] | < 500 |
| Cc1ccc(S(=O)(=O)Nc2cc(-c3ncccc3C(F)(F)F)ccc2C)cc1 [Example 27, 4-Methyl-N-[2-methyl-5-(3-trifluoromethyl-pyridin-2-yl)-phenyl]-benzenesulfonamide] | 1000 to 10000 |
| COc1ccc(S(=O)(=O)Nc2cc(-n3ccc(C)n3)ccc2C)cc1 [Example 30, 4-Methoxy-N-[2-methyl-5-(3-methyl-pyrazol-1-yl)-phenyl]-benzenesulfonamide] | < 500 |
| Cc1ccc(S(=O)(=O)Nc2cc(-c3cc(C(F)(F)F)ccn3)ccc2C)cc1 [Example 38, 4-Methyl-N-[2-methyl-5-(4-trifluoromethyl-pyridin-2-yl)-phenyl]-benzenesulfonamide] | 1000 to 10000 |
| Cc1ccc(S(=O)(=O)Nc2cc(-c3cccc(C(F)(F)F)n3)ccc2C)cc1 [Example 39, 4-Methyl-N-[2-methyl-5-(6-trifluoromethyl-pyridin-2-yl)-phenyl]-benzenesulfonamide] | 500 to 1000 |
| COc1ccc(S(=O)(=O)Nc2cc(-n3cc(C)cc3C)ccc2C)cc1 [Example 40, N-[5-(2,4-Dimethyl-pyrrol-1-yl)-2-methyl-phenyl]-4-methoxy-benzenesulfonamide] | 1000 to 10000 |
| COc1ccc(S(=O)(=O)Nc2cc(-n3cccc3C#N)ccc2C)cc1 [Example 41, N-[5-(2-Cyano-pyrrol-1-yl)-2-methyl-phenyl]-4-methoxy-benzenesulfonamide] | 500 to 1000 |
| Cc1ccc(S(=O)(=O)Nc2cc(-c3ccc(C(F)(F)F)cn3)ccc2C)cc1 [Example 45, 4-Methyl-N-[2-methyl-5-(5-trifluoromethyl-pyridin-2-yl)-phenyl]-benzenesulfonamide] | 1000 to 10000 |
| COc1ccc(S(=O)(=O)Nc2cc(-n3cccc3C)ccc2C)cc1 [Example 50, 4-Methoxy-N-[2-methyl-5-(2-methyl-pyrrol-1-yl)-phenyl]-benzenesulfonamide] | < 500 |

The next lines start with the values.

| EC50 [nM] | SMILES |
| --- | --- |
| 500 to 1000 | Cc1ccc(S(=O)(=O)Nc2cc(-c3cccc(C)c3)ccc2C)cc1 [Example 7, N-(4,3′-Dimethyl-biphenyl-3-yl)-4-methyl-benzenesulfonamide] |
| 500 to 1000 | COc1cccc(-c2ccc(C)c(NS(=O)(=O)c3ccc(C)cc3)c2)n1 [Example 9, N-[5-(6-Methoxy-pyridin-2-yl)-2-methyl-phenyl]-4-methyl-benzenesulfonamide] |
| 1000 to 10000 | Cc1ccc(-c2ccc(C)c(NS(=O)(=O)c3ccc(C)cc3)c2)cc1 [Example 10, N-(4,4′-Dimethyl-biphenyl-3-yl)-4-methyl-benzenesulfonamide] |
| < 500 | Cc1ccc(S(=O)(=O)Nc2cc(-c3sc(C)nc3C)ccc2C)cc1 [Example 12, N-[5-(2,4-Dimethyl-thiazol-5-yl)-2-methyl-phenyl]-4-methyl-benzenesulfonamide] |
| 1000 to 10000 | COc1ccc(-c2ccc(C)c(NS(=O)(=O)c3ccc(C)cc3)c2)cn1 [Example 18, N-[5-(6-Methoxy-pyridin-3-yl)-2-methyl-phenyl]-4-methyl-benzenesulfonamide] |
| < 500 | Cc1ccc(S(=O)(=O)Nc2cc(-c3sccc3C)ccc2C)cc1 [Example 24, 4-Methyl-N-[2-methyl-5-(3-methyl-thiophen-2-yl)-phenyl]-benzenesulfonamide] |
| < 500 | Cc1ccc(S(=O)(=O)Nc2cc(-c3ccoc3C)ccc2C)cc1 [Example 25, 4-Methyl-N-[2-methyl-5-(2-methyl-furan-3-yl)-phenyl]-benzenesulfonamide] |
| 1000 to 10000 | COc1cccnc1-c1ccc(C)c(NS(=O)(=O)c2ccc(C)cc2)c1 [Example 26, N-[5-(3-Methoxy-pyridin-2-yl)-2-methyl-phenyl]-4-methyl-benzenesulfonamide] |
| 1000 to 10000 | Cc1ccc(S(=O)(=O)Nc2cc(-c3ncccc3C)ccc2C)cc1 [Example 28, 4-Methyl-N-[2-methyl-5-(3-methyl-pyridin-2-yl)-phenyl]-benzenesulfonamide] |
| 1000 to 10000 | Cc1ccc(S(=O)(=O)Nc2cc(-n3c(C)ccc3C)ccc2C)cc1 [Example 29, N-[5-(2,5-Dimethyl-pyrrol-1-yl)-2-methyl-phenyl]-4-methyl-benzenesulfonamide] |
| 1000 to 10000 | Cc1ccc(S(=O)(=O)Nc2cc(-c3cc(C)ccn3)ccc2C)cc1 [Example 31, 4-Methyl-N-[2-methyl-5-(4-methyl-pyridin-2-yl)-phenyl]-benzenesulfonamide] |
| 1000 to 10000 | Cc1ccc(S(=O)(=O)Nc2cc(-c3ccc(C)cn3)ccc2C)cc1 [Example 32, 4-Methyl-N-[2-methyl-5-(5-methyl-pyridin-2-yl)-phenyl]-benzenesulfonamide] |
| 500 to 1000 | Cc1ccc(S(=O)(=O)Nc2cc(-c3cccc(C)n3)ccc2C)cc1 [Example 33, 4-Methyl-N-[2-methyl-5-(6-methyl-pyridin-2-yl)-phenyl]-benzenesulfonamide] |
| < 500 | Cc1ccc(S(=O)(=O)Nc2cc(-c3cncc(C#N)c3)ccc2C)cc1 [Example 34, N-[5-(5-Cyano-pyridin-3-yl)-2-methyl-phenyl]-4-methyl-benzenesulfonamide] |
| 1000 to 10000 | COc1cncc(-c2ccc(C)c(NS(=O)(=O)c3ccc(C)cc3)c2)c1 [Example 35, N-[5-(5-Methoxy-pyridin-3-yl)-2-methyl-phenyl]-4-methyl-benzenesulfonamide] |
| 1000 to 10000 | COc1cc(C)c(-c2ccc(C)c(NS(=O)(=O)c3ccc(C)cc3)c2)cn1 [Example 36, N-[5-(6-Methoxy-4-methyl-pyridin-3-yl)-2-methyl-phenyl]-4-methyl-benzenesulfonamide] |
| 1000 to 10000 | CCOc1ccc(-c2ccc(C)c(NS(=O)(=O)c3ccc(C)cc3)c2)cn1 [Example 37, N-[5-(6-Ethoxy-pyridin-3-yl)-2-methyl-phenyl]-4-methyl-benzenesulfonamide] |
| 500 to 1000 | CC(=O)c1cccc(-c2ccc(C)c(NS(=O)(=O)c3ccc(C)cc3)c2)n1 [Example 42, N-[5-(6-Acetyl-pyridin-2-yl)-2-methyl-phenyl]-4-methyl-benzenesulfonamide] |
| < 500 | COc1ccc(-c2ccc(C)c(NS(=O)(=O)c3ccc(C)cc3)c2)nc1 [Example 44, N-[5-(5-Methoxy-pyridin-2-yl)-2-methyl-phenyl]-4-methyl-benzenesulfonamide] |
| 500 to 1000 | Cc1ccc(S(=O)(=O)Nc2cc(-c3ccc(F)c(C)n3)ccc2C)cc1 [Example 46, N-[5-(5-Fluoro-6-methyl-pyridin-2-yl)-2-methyl-phenyl]-4-methyl-benzenesulfonamide] |
| < 500 | Cc1ccc(S(=O)(=O)Nc2cc(-c3c(C)noc3C)ccc2C)cc1 [Example 48, N-[5-(3,5-Dimethyl-isoxazol-4-yl)-2-methyl-phenyl]-4-methyl-benzenesulfonamide] |
| 500 to 1000 | Cc1ccc(S(=O)(=O)Nc2cc(-c3cccc(C#N)n3)ccc2C)cc1 [Example 52, N-[5-(6-Cyano-pyridin-2-yl)-2-methyl-phenyl]-4-methyl-benzenesulfonamide] |
| < 500 | Cc1ccc(S(=O)(=O)Nc2cc(-c3ccc(F)cn3)ccc2C)cc1 [Example 53, N-[5-(5-Fluoro-pyridin-2-yl)-2-methyl-phenyl]-4-methyl-benzenesulfonamide] |
